Data on one compound can be found in patent US20250009756A1 (Acerus Biopharma Inc., priority 2012, published 2025).

Molecules are shown by their SMILES. Entries after “also recorded” stand apart in the source; their conditions may differ.

Series [1] is described as follows: Solubility of testosterone in water, solvents, oils and vehicles.
The next series can be described thus: pKa of testosterone. The settings on record: deduced from the molecular structure.

In the case of `C[C@]12CC[C@H]3[C@@H](CCC4=CC(=O)CC[C@@]43C)[C@@H]1CC[C@@H]2O` [Testosterone, 17ß-Hydroxyandrost-4-en-3-one], the Solubility in oils result in series [1] (castor oil) is “up to 4%”; in series [1] (corn oil) it was 0.5%; in series [1] (cottonseed oil), 0.7%; in series [1] (isopropylmyristate), 0.8%; in series [1] (peanut oil) it was 0.5%; in series [1] (soybean oil), 0.6%. The “Solubility in castor oil” value in series [1] (castor oil pure, maximum) is 3.6%; in series [1] (castor oil with 4% Labrafil), ~3.36%; in series [1] (with fumed silica (Aerosil, CabOsil) and 4.0% Labrafil), “up to 4.5%”. Also, in series [1] (solvent named in the value), the “Solubility (descriptive)” value was “freely soluble in methanol and ethanol; also recorded: soluble in acetone and isopropanol; also recorded: insoluble in n-heptane”. For the same compound, the pKa entry in “pKa of testosterone” was “no pKa value in the range 1-14”.
